Structures are written as SMILES.

The text below walks through data of ChEMBL document CHEMBL1125095, “Conformational analysis and structure-activity relationships of selective dopamine D-1 receptor agonists and antagonists of the benzazepine series” (J Med Chem, 1990).

For assay [1], the target named is T1, D(1A) dopamine receptor (Homo sapiens, UniProt P21728). Put plainly: Binding affinity to displace [3H]- SCH 23390 against Dopamine receptor D1.
For assay [2], the target named is D(1A) dopamine receptor (Rattus norvegicus, UniProt P18901). Put plainly: Binding affinity against Dopamine receptor D1 in rat radioligand.
Assay [3] addresses T2, Adenylate cyclase type 5 (Homo sapiens, UniProt O95622). The assay can be described thus: Effective dose required to stimulate Adenylate cyclase.
Target sequence in this assay (O95622 whole entry, looked up): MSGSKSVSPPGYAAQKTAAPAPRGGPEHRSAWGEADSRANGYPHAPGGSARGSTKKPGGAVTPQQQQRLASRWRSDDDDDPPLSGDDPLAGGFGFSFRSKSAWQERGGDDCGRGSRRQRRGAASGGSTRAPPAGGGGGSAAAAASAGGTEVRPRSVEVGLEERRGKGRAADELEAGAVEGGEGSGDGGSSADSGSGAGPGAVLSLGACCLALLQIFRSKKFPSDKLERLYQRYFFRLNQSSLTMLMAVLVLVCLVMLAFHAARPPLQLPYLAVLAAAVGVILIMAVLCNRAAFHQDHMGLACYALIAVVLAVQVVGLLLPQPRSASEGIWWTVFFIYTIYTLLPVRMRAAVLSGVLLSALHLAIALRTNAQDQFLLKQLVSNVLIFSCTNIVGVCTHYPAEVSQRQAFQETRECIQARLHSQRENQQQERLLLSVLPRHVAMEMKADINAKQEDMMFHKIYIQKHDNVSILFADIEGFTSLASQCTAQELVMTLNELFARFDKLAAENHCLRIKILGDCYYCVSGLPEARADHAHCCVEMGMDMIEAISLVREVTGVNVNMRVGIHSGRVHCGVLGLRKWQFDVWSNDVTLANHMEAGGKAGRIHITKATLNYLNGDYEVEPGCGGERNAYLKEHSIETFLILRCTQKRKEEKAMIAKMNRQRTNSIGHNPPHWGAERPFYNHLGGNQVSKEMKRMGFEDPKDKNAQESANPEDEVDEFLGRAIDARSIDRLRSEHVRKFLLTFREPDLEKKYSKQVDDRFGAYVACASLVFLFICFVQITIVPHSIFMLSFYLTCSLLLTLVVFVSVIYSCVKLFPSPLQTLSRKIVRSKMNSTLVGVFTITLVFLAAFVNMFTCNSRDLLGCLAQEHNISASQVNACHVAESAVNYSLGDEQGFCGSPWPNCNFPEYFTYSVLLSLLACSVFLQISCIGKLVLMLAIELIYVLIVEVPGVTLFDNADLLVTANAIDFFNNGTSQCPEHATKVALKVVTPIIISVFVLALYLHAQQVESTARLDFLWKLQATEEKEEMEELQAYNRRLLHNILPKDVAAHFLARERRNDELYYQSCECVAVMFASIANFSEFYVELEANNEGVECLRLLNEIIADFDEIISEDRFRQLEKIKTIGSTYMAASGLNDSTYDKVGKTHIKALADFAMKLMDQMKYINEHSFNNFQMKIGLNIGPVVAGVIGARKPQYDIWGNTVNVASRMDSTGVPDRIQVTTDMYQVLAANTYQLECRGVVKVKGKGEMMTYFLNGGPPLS
The target of assay [4] is T2, Adenylate cyclase type 5. Put plainly: Effective concentration required to stimulate Adenylate cyclase; Inactive.
Target sequence in this assay (O95622 whole entry): as the sequence (O95622 whole entry, looked up) above
For assay [5], the target named is T2, Adenylate cyclase type 5. The assay can be described thus: Effective concentration required to stimulate Adenylate cyclase.
Target sequence in this assay (O95622 whole entry, looked up): as above
The target in assay [6] is T1, D(1A) dopamine receptor. Put plainly: Binding affinity to displace [3H]-SCH- 23390 against Dopamine receptor D1.

T1 sequence (P21728 whole entry): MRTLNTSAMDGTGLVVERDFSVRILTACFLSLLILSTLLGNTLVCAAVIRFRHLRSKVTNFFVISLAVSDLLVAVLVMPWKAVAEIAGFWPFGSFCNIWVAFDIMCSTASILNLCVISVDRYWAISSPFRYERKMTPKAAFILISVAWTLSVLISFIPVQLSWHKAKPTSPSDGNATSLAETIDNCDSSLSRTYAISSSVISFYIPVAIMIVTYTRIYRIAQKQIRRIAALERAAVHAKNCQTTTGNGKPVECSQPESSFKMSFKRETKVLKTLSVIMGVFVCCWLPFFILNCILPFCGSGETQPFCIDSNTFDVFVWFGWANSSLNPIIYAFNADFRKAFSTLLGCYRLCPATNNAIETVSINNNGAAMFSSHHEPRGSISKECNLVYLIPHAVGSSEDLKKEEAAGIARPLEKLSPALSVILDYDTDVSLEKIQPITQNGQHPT
D(1A) dopamine receptor (Rattus norvegicus, UniProt P18901), sequence (P18901 whole entry): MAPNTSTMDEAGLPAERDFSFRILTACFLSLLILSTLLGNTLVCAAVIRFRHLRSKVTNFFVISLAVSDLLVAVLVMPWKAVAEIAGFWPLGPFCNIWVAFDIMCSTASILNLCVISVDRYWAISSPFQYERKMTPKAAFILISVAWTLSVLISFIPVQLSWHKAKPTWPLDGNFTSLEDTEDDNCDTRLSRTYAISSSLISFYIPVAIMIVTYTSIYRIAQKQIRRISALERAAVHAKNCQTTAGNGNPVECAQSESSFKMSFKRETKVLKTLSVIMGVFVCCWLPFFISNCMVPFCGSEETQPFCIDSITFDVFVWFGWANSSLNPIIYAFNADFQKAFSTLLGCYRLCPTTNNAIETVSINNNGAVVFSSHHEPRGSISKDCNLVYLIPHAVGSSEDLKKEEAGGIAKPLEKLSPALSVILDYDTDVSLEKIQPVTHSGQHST

As a reminder, the Ki is the dissociation constant of the complex between target and ligand, obtained from inhibition or displacement. A high value points to a looser hold on the target. For the molecule `Cc1ccccc1[C@H]1CN(C)CCc2cc(Cl)c(O)cc21`, the inhibition constant (Ki) at D(1A) dopamine receptor [1] was determined as 0.8 nM.
Molecule `Oc1cc2c3c(c1O)CC[C@@H]3CNC[C@@H]2c1ccccc1` registered a Ki at D(1A) dopamine receptor [2] of 24 nM. Moreover, on Adenylate cyclase type 5 [3], the ED50 is 430 nM.
On to `Oc1cc2c(cc1O)[C@@H](c1ccccc1)CNCC2`, for which the ED50 on Adenylate cyclase type 5 [3] is 63 nM.
The molecule `CN1CCc2cc(Cl)c(O)cc2[C@H]2c3ccccc3C[C@@H]21` displayed an inhibition constant Ki at D(1A) dopamine receptor [1] of 7 nM.
On D(1A) dopamine receptor [1], `Cc1ccc([C@H]2CN(C)CCc3cc(Cl)c(O)cc32)cc1` showed an inhibition constant (Ki) of 1.6 nM.
`Cc1cccc([C@H]2CN(C)CCc3cc(Cl)c(O)cc32)c1`: the affinity on D(1A) dopamine receptor [1], expressed as Ki, was 0.4 nM.
For `Cc1ccccc1[C@H]1CNCCc2cc(O)c(O)cc21`, the EC50 result at Adenylate cyclase type 5 [4] was “Not Active”.
`Cc1cccc([C@H]2CNCCc3cc(O)c(O)cc32)c1` yielded a Response on Adenylate cyclase type 5 [5] of 71%.
The molecule `Oc1cc2c3c(c1O)CC[C@H]3CNC[C@@H]2c1ccccc1` gave a Ki at D(1A) dopamine receptor [2] of 1220 nM. The same molecule returned a Control at Adenylate cyclase type 5 [3] of 20%.
In turn, `CN1CCc2cc(Cl)c(O)cc2[C@@H](c2cccc3ccoc23)C1` yielded an inhibition constant (Ki) at D(1A) dopamine receptor [6] of 6 nM.
Turning to `Cc1c(O)c(O)cc2c1[C@@H](c1ccccc1)CNCC2`, the EC50 entry on Adenylate cyclase type 5 [4] is “Not Active”.
